We go through seven compounds from patent EP4763839A1 (Pamplona Therapeutics (Shenzhen) Co., Ltd., priority 2023, dated 2025).

Data set [1] in a line: Pharmacokinetic detection in rats after intravenous injection and oral administration. Conditions: rat; for AUC / Cmax / half-life: in vivo, oral administration. The format is in vivo, Sprague-Dawley (SD) rats. The procedure:
Example 4. Pharmacokinetic detection
This study was designed to investigate the pharmacokinetic properties of the compounds in rats following intravenous injection and oral administration.
Experimental protocol: Six healthy male Sprague-Dawley (SD) rats were used for each compound, randomly divided into two groups of three animals each, with body weights ranging from 180-220 g. The rats were fasted overnight (10-14 hours) prior to administration, with free access to water, and food was restored 4 hours after administration. The compounds were formulated in a vehicle consisting of 5% DMSO + 10% solutol + 85% physiological saline (w/v). […] For A170, A177, and A180, the intravenous injection group received a dose of 1 mg/kg with an administration volume of 1 mL/kg, and the oral administration group received a dose of 5 mg/kg with an administration volume of 5 mL/kg. Blank blood samples were collected prior to administration. After administration, 0.2 mL of blood was collected from the jugular vein or other suitable methods at predetermined time points (0.083 h, 0.25 h, 0.5 h, 1 h, 2 h, 4 h, 8 h, 24 h) into EDTA-K2 anticoagulant tubes, and plasma was separated by centrifugation at 6800 g for 6 minutes. After the experiment, the concentration of the compound in plasma was quantitatively detected using liquid chromatography-tandem mass spectrometry (LCMS/MS). Pharmacokinetic parameters were calculated on the basis of the plasma concentration data at different time points using Phoenix WinNonlin version 8.3.5.

The next data set relates to IL-6. In words: Inhibition of R848-induced IL-6 release in human PBMCs, IL-6 ELISA. The format is cell-based. Conditions: PBMC, compound 24 hours, then R848 10 µg/mL 5 hours. As to the method:
Example 3: Detection of inhibition of R848-induced IL-6 release
Cryopreserved human PBMCs (Milestone® Biotechnologies, PB010C-W) were thawed and resuspended in RPMI-1640 medium (Gibco, 22400-105) supplemented with 10% fetal bovine serum (Gibco, 10099-141), 100 U/mL penicillin, and 100 µg/mL streptomycin (Gibco, 15140122). Subsequently, 190 µL of the PBMC suspension was added to each well of 96-well clear cell culture plates (Corning, 3599) to achieve a density of 1×10^5 cells/well. The cell plates were incubated at 37°C in a 5% CO2 incubator for 30 minutes. Then, 5 µL of diluted compound solution was added to the corresponding cell-seeded wells to achieve final concentrations ranging from 0.046 to 3,000 nM. The final concentration of DMSO was 0.1%. After the compound-treated cell plate was incubated at 37°C in a 5% CO2 incubator for 24 hours, 5 µL of R848 (MCE, HY-13740) was added to achieve a final concentration of 10 µg/mL. The cell plates were incubated again at 37°C in a 5% CO2 incubator for 5 hours, then centrifuged at 1,000 rpm for 1 minute. 100 µL of the cell supernatant from each well was transferred to a new 96-well clear cell culture plate for IL-6 concentration testing.
Interleukin-6 (IL-6) ELISA assay
The IL-6 concentration in the supernatant of R848-induced human PBMCs was determined using a Human IL-6 (interleukin-6) ELISA KIT (4Bio, CHE0009-048). IL-6 standard solutions at different concentrations, ranging from 3.9 to 250 pg/mL, were prepared according to the manufacturer's instructions. 100 µL of each concentration of the IL-6 standard solution and the pre-diluted test cell supernatant samples were added separately to anti-IL-6 antibody-coated and blocked clear 96-well plates, followed by incubation at 37°C for 1.5 hours. According to the product instructions, the plates were washed, 100 µL of biotinylated antibody was added, and the plates were incubated at 37°C for 1 hour. The plates were washed, 100 µL of enzyme conjugate working solution was added. The plates were incubated at 37°C for 30 minutes, and then washed. 100 µL of chromogenic substrate was added, and the plates were incubated at 37°C for 10-20 minutes. The reaction was terminated by adding 100 µL of stop solution. After the reaction, the OD value at 450 nm was measured in absorbance mode using an Envision microplate reader (PerkinElmer). A standard curve was plotted using the corrected OD values of the various concentrations of IL-6 standard solutions. The IL-6 concentration in each cell supernatant was then determined on the basis of the corresponding concentration for the corrected OD value of the test sample on the standard curve. […] Subsequently, the IC50 value of the compound was calculated by performing non-linear curve fitting of concentration versus inhibition rate using GraphPad Prism 9.
(An ELISA detects its analyte on a solid surface through an enzyme-linked reagent.)

Data set [2] addresses T1, IRAK4 (Homo sapiens, UniProt Q9NWZ3).
T1 sequence (Q9NWZ3 1-460): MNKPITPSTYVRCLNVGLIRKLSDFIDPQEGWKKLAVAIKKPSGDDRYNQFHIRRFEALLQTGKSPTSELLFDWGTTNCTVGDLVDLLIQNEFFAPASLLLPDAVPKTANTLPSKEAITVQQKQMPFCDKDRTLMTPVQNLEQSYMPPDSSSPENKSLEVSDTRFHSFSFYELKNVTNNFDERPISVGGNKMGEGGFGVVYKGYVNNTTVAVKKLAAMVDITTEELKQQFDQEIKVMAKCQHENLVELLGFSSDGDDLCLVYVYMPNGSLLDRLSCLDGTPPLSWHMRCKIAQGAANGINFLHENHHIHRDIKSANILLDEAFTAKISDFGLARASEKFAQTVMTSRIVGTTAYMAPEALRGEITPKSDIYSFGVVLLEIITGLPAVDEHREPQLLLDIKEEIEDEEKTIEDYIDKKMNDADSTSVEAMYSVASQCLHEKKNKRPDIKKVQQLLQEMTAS
As to the kind of experiment: Degradation of IRAK4 in THP1 cells, Western blot. The format is cell-based. Particulars: THP-1 cells, 24 hours of incubation; for DC50: IRAK4 protein by Western blot, read-out: DC50; for Dmax: maximum degradation rate, read-out: Dmax. Also on record: Degradation of IRAK4 in THP1 by compound; host or cells: THP-1. The gist of the method: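 THP1 cells treated 24 h, lysed; lysates normalised by BCA, 40 μg protein per lane on 10% SDS-PAGE, anti-IRAK4 Western blot with chemiluminescence detection.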

In data set [3] the target is T1, IRAK4. Particulars: Phase I clinical studies in hidradenitis suppurativa and atopic dermatitis; cited from earlier work.
The mark [4] stands for this setting: oral 5 mg/kg, intravenous 1 mg/kg.
The mark [5] stands for this setting: oral 10 mg/kg, intravenous 2 mg/kg.

Broadly, the AUC is the area under the concentration-time curve, a measure of exposure. Broadly, the Cmax is the highest concentration seen after dosing. A word on the half-life: it is the time in which the quantity being followed falls by half. By IC50 is commonly meant the point on the concentration scale where inhibition reaches its midpoint. Low values mean inhibition by little substance, high ones a need for much substance. The term DC50 denotes the midpoint of the concentration-degradation curve. In general, Dmax refers to the greatest extent of degradation seen. `Cn1c(=O)n(C2CCC(=O)NC2=O)c2ccc(N3CCC(CN4CCN(c5ccc(-n6cc(NC(=O)c7cccc(C(F)(F)F)n7)c(C(N)=O)n6)cc5)CC4)CC3)cc21` (stereo not drawn) [Compound A177]: in data set [1] (5 mg/kg), the area under the curve (AUC) came out at 1230 ng·h/mL, the peak level (Cmax) was 120 ng/mL and the half-life is 8 h. Also, the F in data set [1] (setting [4]) is 8%. The IC50 in the data set on IL-6 was less than 0.01 µM. On IRAK4 [2], the DC50 was less than 0.1 µM and the Dmax is greater than 60%.

In data set [1] (10 mg/kg), `NC(=O)c1nn(-c2ccc(N3CCN(CCN4CCN(c5ccc6c(c5)C(=O)N(C5CCC(=O)NC5=O)C6=O)CC4)CC3)cc2)cc1NC(=O)c1cccc(C(F)(F)F)n1` (stereo not drawn) [Compound A173] had an AUC of 1130 ng·h/mL, a Cmax of 107 ng/mL and a half-life of 21 h. In data set [1] (setting [5]), this compound registered an F of 18%. The compound further returned an IC50 in the data set on IL-6 of less than 0.01 µM.

In data set [1] (10 mg/kg), `NC(=O)c1nn(-c2ccc(N3CCN(CC4CCN(c5ccc(NC6CCC(=O)NC6=O)cc5F)CC4)CC3)cc2)cc1NC(=O)c1cccc(C(F)(F)F)n1` (stereo not drawn) [Compound A195] had an AUC of 19300 ng·h/mL, a Cmax of 1250 ng/mL and a half-life of 15 h. This compound registered a F in data set [1] (setting [5]) of 52%. In addition, the IC50 in the data set on IL-6 was less than 0.01 µM.

`NC(=O)c1nn(-c2ccc(N3CCN(CC4CCN(c5ccc6c(c5)CN(C5CCC(=O)NC5=O)C6=O)CC4)CC3)cc2)cc1NC(=O)c1cccc(C(F)(F)F)n1` (stereo not drawn) [Compound A169]: in data set [1] (10 mg/kg), the exposure (AUC) is 3520 ng·h/mL, the maximum concentration (Cmax) was determined as 408 ng/mL and the half-life was 5 h. The compound also showed a F in data set [1] (setting [5]) of 16%. In the data set with IL-6, this compound registered an IC50 of less than 0.01 µM. In addition, on IRAK4 [2], the DC50 was less than 0.1 µM and the Dmax is greater than 60%.

On to `Cn1c(=O)n(C2CCC(=O)NC2=O)c2cccc(C#CCOC3CCN(C[C@H]4CC[C@H](n5cc(NC(=O)c6cnn7ccc(N8C[C@H]9C[C@@H]8CO9)nc67)c(C(F)F)n5)CC4)CC3)c21` (stereo partly drawn) [KT-474], for which the safety and tolerability result at IRAK4 [3] was “favorable safety and tolerability”.

In the case of `NC(=O)c1nn(-c2ccc(N3CCN(CC4CCN(c5ccc6c(c5)CN(C5CCC(=O)NC5=O)C6=O)CC4(F)F)CC3)cc2)cc1NC(=O)c1cccc(C(F)(F)F)n1` (stereo not drawn) [Compound A170], in data set [1] (5 mg/kg), the AUC worked out at 2160 ng·h/mL, the highest level (Cmax) was 285 ng/mL and the half-life is 7 h. The same compound had a F in data set [1] (setting [4]) of 28%. This compound also returned an IC50 in the data set with IL-6 of less than 0.01 µM. Moreover, on IRAK4 [2], the DC50 was less than 0.1 µM and the Dmax is greater than 60%.

In the case of `Cn1c(=O)n(C2CCC(=O)NC2=O)c2cccc(N3CCC(CN4CCN(c5ccc(-n6cc(NC(=O)c7cccc(C(F)(F)F)n7)c(C(N)=O)n6)cc5)CC4)CC3)c21` (stereo not drawn) [Compound A178], in data set [1] (10 mg/kg), the area under the curve (AUC) was 6560 ng·h/mL, the concentration peaked (Cmax) at 593 ng/mL and the half-life is 15 h. The same compound showed a F in data set [1] (setting [5]) of 30%. Further, in the data set on IL-6, the IC50 is less than 0.01 µM. In addition, at IRAK4 [2], the DC50 was less than 0.1 µM and the Dmax was greater than 60%.
